Read-outs that look alike come from different tables or passages of the source.

IC50 data for 22 compounds are collected here from patent publication US10214546B2, “Btk inhibitors” (MERCK SHARP & DOHME CORP., priority 2014, dated 2019).

The target in experiment [1] is BTK enzyme (recombinant full-length BTK, hBTK) (Homo sapiens (Human), UniProt Q06187). Briefly: BTK enzymatic activity LANCE TR-FRET assay. The class given is biochemical. The following applies: 50 pM hBTK, 25 μM ATP, 2 μM biotin-A5-peptide; compound range 1 μM to 0.017 nM; read-out: BTK binding IC50. On the technique in general: Time-resolved FRET reads energy transfer from a long-lived donor to a nearby acceptor.

The test system of experiment [2] is adenosine uptake into HeLa cells. Briefly: [3H]Adenosine uptake assay in HeLa cells. The class given is cell-based. The following applies: [3H]adenosine accumulation in HeLa cells, compound range 10 μM to 0.032 nM, read-out: ADU inhibition IC50. The gist of the method: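 HeLa cells in HBSS + 5% FBS were preincubated 30 min at ambient temperature with compound (ten-point 1:3 series, 10 µM–[…] final), then given [3H]adenosine (added as a 500 nM solution) for 60 min. Cell-associated label was read by scintillating-plate proximity counting; IC50 from 4-parameter fit of cps versus log concentration.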

Sequence of BTK enzyme (recombinant full-length BTK, hBTK) (Q06187 whole entry): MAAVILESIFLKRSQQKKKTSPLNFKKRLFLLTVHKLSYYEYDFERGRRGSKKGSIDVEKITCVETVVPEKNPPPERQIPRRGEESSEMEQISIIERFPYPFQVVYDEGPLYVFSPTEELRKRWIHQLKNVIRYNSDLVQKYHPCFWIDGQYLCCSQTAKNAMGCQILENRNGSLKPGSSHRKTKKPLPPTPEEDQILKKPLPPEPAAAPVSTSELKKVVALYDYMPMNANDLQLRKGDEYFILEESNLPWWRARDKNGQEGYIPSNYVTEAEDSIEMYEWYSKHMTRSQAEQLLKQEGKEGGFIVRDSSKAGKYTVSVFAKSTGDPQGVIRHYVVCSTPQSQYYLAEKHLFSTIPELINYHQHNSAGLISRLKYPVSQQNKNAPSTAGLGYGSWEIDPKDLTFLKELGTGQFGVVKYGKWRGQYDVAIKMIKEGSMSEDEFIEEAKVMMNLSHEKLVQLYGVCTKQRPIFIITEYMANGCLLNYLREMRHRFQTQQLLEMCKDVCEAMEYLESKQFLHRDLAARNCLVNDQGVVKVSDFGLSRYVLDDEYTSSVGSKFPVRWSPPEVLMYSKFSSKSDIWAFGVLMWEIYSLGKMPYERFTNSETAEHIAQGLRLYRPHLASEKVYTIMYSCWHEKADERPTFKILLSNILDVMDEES

On to `CC(O)(c1ccc(-c2nc([C@@H]3CC[C@H]4CCC(=O)N4C3)n3ccnc(N)c23)cc1)c1cccnc1` (stereo partly drawn) [Example 18, (6R,8aS)-6-{8-amino-1-[4-(1-hydroxy-1-pyridin-3-ylethyl)phenyl]imidazo[1,5-a]pyrazin-3-yl}hexahydroindolizin-3(2H)-one], for which the IC50 in experiment [1] amounted to 359 nM; in experiment [2] (Homo sapiens, HeLa), 10000 nM.

With `COc1ccccc1[C@@](C)(O)c1ccc(-c2nc([C@@H]3CC[C@H]4CCC(=O)N4C3)n3ccnc(N)c23)cc1` [Example 49, (6R,8aS)-6-(8-amino-1-{4-[(1S)-1-hydroxy-1-(2-methoxyphenyl)ethyl]phenyl}imidazo[1,5-a]pyrazin-3-yl)hexahydroindolizin-3(2H)-one], the concentration for half-maximal inhibition (IC50) was determined as 45.2 nM in experiment [1] and 2950 nM in experiment [2] (Homo sapiens, HeLa).

In the case of `COc1cc([C@@](C)(O)c2cccc(C(F)(F)F)c2)ccc1-c1nc([C@@H]2CC[C@H]3CC(C)(C)C(=O)N3C2)n2ccnc(N)c12` [Example 206, (6R,8aS)-6-[8-amino-1-(4-{(1S)-1-hydroxy-1-[3-(trifluoromethyl)phenyl]ethyl}-2-methoxyphenyl)imidazo [1,5-a]pyrazin-3-yl]-2,2-dimethylhexahydroindolizin-3(2H)-one], the IC50 in experiment [1] was determined as 3.8 nM; in experiment [2] (Homo sapiens, HeLa), 5460 nM.

On to `C[C@@](O)(c1ccc(-c2nc([C@@H]3CC[C@H]4COCC(=O)N4C3)n3c(Cl)cnc(N)c23)cc1)c1cccc(C(F)(F)F)c1` [Example 175, (7R,9aS)-7-(8-amino-5-chloro-1-(4-{(1R)-1-hydroxy-1-[3-(trifluoromethyl)phenyl]ethyl}phenyl)imidazo [1,5-a]pyrazin-3-yl]hexahydropyrido[2,1-c][1,4]oxazin-4(3H)-one], for which the IC50 amounted to 1.5 nM in experiment [1] and 1380 nM in experiment [2] (Homo sapiens, HeLa).

For `COc1cc(C(C)(O)c2cccc(C(F)(F)F)c2)ccc1-c1nc([C@@H]2CC[C@@H]3N(C2)C(=O)CC3(C)C)n2ccnc(N)c12` (stereo partly drawn) [Example 209, (6R,8aS)-6-[8-amino-1-(4-{1-hydroxy-1-[3-(trifluoromethyl)phenyl]ethyl}-2-methoxyphenyl)imidazo [1,5-a]pyrazin-3-yl]-1,1-dimethylhexahydroindolizin-3(2H)-one], the IC50 in experiment [1] turned out to be 26 nM; in experiment [2] it was 1120 nM.

In the case of `CC(O)(c1cccc(C(F)(F)F)c1)c1ccc(-c2nc([C@@H]3CC[C@H]4CCC(=O)N4C3)n3ccnc(N)c23)c(Cl)c1` (stereo partly drawn) [Example 100, (6R,8aS)-6-[8-amino-1-(2-chloro-4-{1-hydroxy-1-[3-(trifluoromethyl)phenyl]ethyl}phenyl)imidazo [1,5-a]pyrazin-3-yl]hexahydroindolizin-3(2H)-one], the IC50 in experiment [1] turned out to be 17.4 nM; in experiment [2] (Homo sapiens, HeLa) it was 311 nM.

For the compound `CC(C)(C)c1cccc([C@@](C)(O)c2ccc(-c3nc([C@@H]4CC[C@H]5CCC(=O)N5C4)n4ccnc(N)c34)cc2)c1` [Example 39, (6R,8aS)-6-(8-amino-1-{4-[(1S)-1-(3-tert-butylphenyl)-1-hydroxyethyl]phenyl}imidazo[1,5-a]pyrazin-3-yl)hexahydroindolizin-3(2H)-one], the IC50 in experiment [1] was 9.6 nM; in experiment [2] (Homo sapiens, HeLa), 608 nM.

Turning to `CC(O)(c1ccc(-c2nc([C@@H]3CC[C@H]4CCC(=O)N4C3)n3ccnc(N)c23)cc1)C1CC2CCC1CC2` (stereo partly drawn) [Example 149, (6R,8aS)-6-{8-amino-1-[4-(1-bicyclo[2.2.2]oct-2-yl-1-hydroxyethyl)phenyl]imidazo[1,5-a]pyrazin-3-yl}hexahydroindolizin-3(2H)-one], the IC50 in experiment [1] was 888 nM; in experiment [2] it was 701 nM.

Regarding `CCOc1cc(C(C)(O)c2cccc(C)c2)ccc1-c1nc([C@@H]2CC[C@H]3CCC(=O)N3C2)n2ccnc(N)c12` (stereo partly drawn) [Example 168, (6R,8aS)-6-(8-amino-1-{2-ethoxy-4-[1-hydroxy-1-(3-methylphenyl)ethyl]phenyl}imidazo[1,5-a]pyrazin-3-yl)hexahydroindolizin-3(2H)-one], the half-inhibitory concentration (IC50) in experiment [1] was 60.3 nM; in experiment [2] it was 3650 nM.

As for `C[C@@](O)(c1ccc(-c2nc([C@@H]3CC[C@H]4CCC(=O)N4C3)n3c(Cl)cnc(N)c23)cc1)c1cccc(C2CC2)c1` [Example 117, (6R,8aS)-6-(8-amino-5-chloro-1-{4-[(1R)-1-(3-cyclopropylphenyl)-1-hydroxyethyl]phenyl}imidazo[1,5-a]pyrazin-3-yl)hexahydroindolizin-3(2H)-one], the IC50 in experiment [1] is 0.12 nM; in experiment [2] (Homo sapiens, HeLa) it was 956 nM.

Take `CC1(C)C[C@@H]2CC[C@@H](c3nc(-c4ccc(C(C)(O)c5cccc(C(F)(F)F)c5)cc4F)c4c(N)nccn34)CN2C1=O` (stereo partly drawn) [Example 196, (6R,8aS)-6-[8-amino-1-(2-fluoro-4-{1-hydroxy-1-[3-(trifluoromethyl)pheyl]ethyl}phenyl)imidazo [1,5-a)pyrazin-3-yl]-2,2-dimethylhexahydroindolizin-3(2H)-one]: the IC50 came to 500 nM in experiment [1] and 369 nM in experiment [2].

For `C[C@@](O)(c1ccc(-c2nc([C@@H]3CC[C@H]4CCC(=O)N4C3)n3ccnc(N)c23)cc1)c1ccnc(C(F)(F)F)c1` [Example 155, (6R,8aS)-6-[8-amino-1-(4-{(1R)-1-hydroxy-1-[2-(trifluoromethyl)pyridin-4-yl]ethyl}phenyl)imidazo [1,5-a]pyrazin-3-yl]hexahydroindolizin-3(2H)-one], the IC50 amounted to 858 nM in experiment [1] and 2750 nM in experiment [2] (Homo sapiens, HeLa).

Consider `C[C@@](O)(c1ccc(-c2nc([C@@H]3CC[C@H]4CCC(=O)N4C3)n3c(Cl)cnc(N)c23)cc1)c1cccc(C(F)(F)F)c1` [Example 6, (6R,8aS)-6-(8-amino-5-chloro-1-(4-((R)-1-hydroxy-1-(3-(trifluoromethyl)phenyl)ethyl)phenyl)imidazo[1,5-a]pyrazin-3-yl)hexahydroindolizin-3(2H)-one], for which the IC50 turned out to be 0.76 nM in experiment [1] and 1730 nM in experiment [2] (Homo sapiens, HeLa).

On to `C[C@](O)(c1ccc(-c2nc([C@@H]3CC[C@H]4CCC(=O)N4C3)n3ccnc(N)c23)cc1)c1ccnc(C(F)(F)F)c1` [Example 154, (6R,8aS)-6-[8-amino-1-(4-{(1S)-1-hydroxy-1-[2-(trifluoromethyl)pyridin-4-yl]ethyl}phenyl)imidazo [1,5-a]pyrazin-3-yl]hexahydroindolizin-3(2H)-one], for which the IC50 was determined as 1000 nM in experiment [1] and 464 nM in experiment [2] (Homo sapiens, HeLa).

Turning to `CC(O)(c1cccc(C(F)(F)F)c1)c1ccc(-c2nc([C@@H]3CC[C@H]4CCC(=O)N4C3)n3c(F)cnc(N)c23)c(F)c1` (stereo partly drawn) [Example 183, (6R,8aS)-6-[8-amino-5-fluoro-1-(2-fluoro-4-{1-hydroxy-1-[3-(trifluoromethyl)phenyl]ethyl}phenyl)imidazo [1,5-a]pyrazin-3-yl]hexahydroindolizin-3(2H)-one], the values for the IC50 in experiment [1] and in experiment [2] were 324 nM and 561 nM, respectively.

For the compound `CC(O)(c1ccc(F)cc1)c1ccc(-c2nc([C@@H]3CC[C@H]4CCC(=O)N4C3)n3ccnc(N)c23)cc1` (stereo partly drawn) [Example 19, (6R,8aS)-6-(8-amino-1-{4-(1-(4-fluorophenyl)-1-hydroxyethyl]phenyl}imidazo[1,5-a]pyrazin-3-yl)hexahydroindolizin-3(2H)-one], the IC50 was determined as 170 nM in experiment [1] and 2360 nM in experiment [2] (Homo sapiens, HeLa).

As for `Nc1nccn2c([C@@H]3CC[C@H]4CCC(=O)N4C3)nc(-c3ccc([C@@](O)(c4ccccc4)C(F)(F)F)cc3)c12` [Example 26, (6R,8aS)-6-(8-amino-1-{4-[(1S)-2,2,2-trifluoro-1-hydroxy-1-phenylethyl]phenyl}imidazo[1,5-a]pyrazin-3-yl)hexahydroindolizin-3(2H)-one], the IC50 is 156 nM in experiment [1] and 2610 nM in experiment [2] (Homo sapiens, HeLa).

In the case of `CCOc1cc(C(C)(O)c2cccc(C(F)(F)F)c2)ccc1-c1nc([C@@H]2CC[C@H]3CCC(=O)N3C2)n2ccnc(N)c12` (stereo partly drawn) [Example 167, (6R,8aS)-6-[8-amino-1-(2-ethoxy-4-{1-hydroxy-1-[3-(trifluoromethyl)phenyl]ethyl}phenyl)imidazo [1,5-a]pyrazin-3-yl]hexahydroindolizin-3(2H)-one], the IC50 in experiment [1] is 20.6 nM; in experiment [2] it was 2410 nM.

For `COc1cc(-c2nc([C@@H]3CC[C@H]4CCC(=O)N4C3)n3ccnc(N)c23)ccc1C(C)(O)c1cccc(C(F)(F)F)c1` (stereo partly drawn) [Example 64, (6R,8aS)-6-[8-amino-1-(4-{1-hydroxy-1-[3-(trifluoromethyl)phenyl]ethyl}-3-methoxyphenyl)imidao [1,5-a]pyrazin-3-yl]hexahydroindolizin-3(2H)-one], the IC50 amounted to 59.1 nM in experiment [1] and 936 nM in experiment [2].

Regarding `C[C@](O)(c1ccccc1)c1ccc(-c2nc([C@@H]3CC[C@H]4CCC(=O)N4C3)n3ccnc(N)c23)cc1` [Example 1, (6R,8aS)-6-(8-amino-1-(4-((S)-1-hydroxy-1-phenylethyl)phenyl)imidazo[1,5-a]pyrazin-3-yl)hexahydroindolizin-3(2H)-one], the half-maximal inhibitory concentration (IC50) was 65.2 nM in experiment [1] and 3340 nM in experiment [2] (Homo sapiens, HeLa).

With `C[C@](O)(c1ccc(-c2nc([C@@H]3CC[C@H]4CCC(=O)N4C3)n3ccnc(N)c23)cc1)c1ccc(C(F)(F)F)s1` [Example 111, (6R,8aS)-6-[8-amino-1-(4-{(1S)-1-hydroxy-1-[5-(trifluoromethyl)thiophen-2-yl]ethyl}phenyl)imidazo [1,5-a]pyrazin-3-yl]hexahydroindolizin-3(2H)-one], the figures for the 50% inhibitory concentration (IC50) in experiment [1] and in experiment [2] were 1000 nM and 722 nM, respectively.

Consider `C[C@@](O)(c1ccc(-c2nc([C@@H]3CC[C@@H]4N(C3)C(=O)CC43CC3)n3ccnc(N)c23)cc1)c1cccc(C(F)F)c1` [Example 189, (6′R,8a′S)-6′-[8-amino-1-(4-{(1R)-1-[3-(difluoromethyl)phenyl]-1-hydroxyethyl}phenyl)imidazo[1,5-a]pyrazin-3-yl]tetrahydro-5′H-spiro[cyclopropane-1,1′-indolizin]-3′(2′H)-one], for which the half-maximal inhibitory concentration (IC50) was 0.17 nM in experiment [1] and 2080 nM in experiment [2] (Homo sapiens, HeLa).

Usually IC50 stands for the concentration that inhibits the measured activity by half.
